# Laboratory results from patent publication US20250082625A1, “NOVEL THERAPY” (priority 2016, published 2025).
# “Also recorded” adds a separate entry of the source.
# Tests used:
# [1] = test system: Nlrp3^−/− mice infected with CY-17; experiment: Disease severity / bladder pathology in CY-17 infected Nlrp3^−/− mice (murine acute cystitis model); type: in vivo
# Description: To inhibit the NK1R dependent response to infection, we used the NK1R antagonist SR 140333. FIG. 6a Experimental scheme of NK1R antagonist (SR140333) treatment. Susceptible Nlrp3^−/− mice were infected with CY-17 for 24 hours, and the neuropeptide response and disease severity was compared between untreated infected mice, treated and infected mice and sham treated uninfected mice. The mice were either pre-treated with SR140333 i.p. for 30 minutes prior to infection or treated i.p. 1 hour after infection. Sham treated mice received SR140333 i.p. and PBS intravesically. n=10 mice in each treatment group, n=6 in the sham treated, uninfected group. N=2 in the uninfected control group. Means+SEMs of 2 experiments, total number of mice=39. FIG. 6b Protection against gross bladder pathology in SR140333 treated mice compared untreated, infected mice, FIG. 6c Inhibition of NK1R staining in treated mice compared to infected mice not receiving SR140333. Sections were obtained from 4 mice per condition. FIG. 6d Inhibition of Nk1r expression, detected by qRT-PCR analysis of treated mice compared to untreated, infected mice. Sections were obtained from 5 mice per treatment group. FIG. 6e Attenuated SP staining in SR140333 treated infected mice compared to untreated mice (n=4 mice per condition). […] FIG. 6h Galr2 gene expression is not altered after treatment with SR140333. n=5 mice per treatment group (*=p<0.05, **=p<0.01, Mann-Whitney test). FIG. 6i Protection from bladder tissue pathology shown in H&E stained and neutrophil and bacterial immunostained sections from treated versus control mice. […] (n=10 mice per treatment group, n=4 mice per sham group, means+SEMs, *P<0.05, **P<0.01, ***P<0.001, one way Anova).
# Susceptible Nlrp3^−/− mice were treated with SR140333 intra-peritoneally (1 mg/kg), one hour before infection (pretreatment) or 30 minutes after infection (post-treatment) with CY-17 (FIG. 6a). The severity of acute cystitis after 24 hours or seven days was examined and neuropeptide expression and disease severity quantified by immunohistochemistry and qRT-PCR of whole bladder RNA extracts, using primers specific for NK1R, Ppt-1 or Galr2 as described above.
# Bladder tissue was more intact and the inflammatory cell infiltrate was reduced in tissues.
# [2] = test system: differentiated SH-SY5Y cells; experiment: Pre-treatment of differentiated SH-SY5Y nerve cells before CY17 infection (confocal imaging, ELISA); type: cell-based, human
# Description: Cells were grown on 8-well chamber slides (6×10^4 cells/well, Thermo Fischer Scientific) or in 6-well plates (6×10^5 cells/well) for 16 hours in media supplemented with 10% FBS. Media were removed, and cells were washed with PBS before adding medium without FBS. Cells were infected with bacteria diluted to appropriate concentration in PBS and incubated for one or four hours at 37° C. with 5% CO2.
# The two cell types were first infected with increasing concentrations of the acute cystitis strain E. coli CY-17 (10^2-10^4 cfu/ml) for 1 to 4 hours. NK1R and SP expression was used as a read out of the cellular response. […] A concentration of 10^4 cfu/ml of CY-17 and four hours of infection was chosen for further studies. Under these conditions, there was little cytotoxicity. To further characterize the neuropeptide response to bladder infection, the in vitro analysis was extended to include GALR2, OrxR2 and TAS2R43. Confocal microscopy was used in this instance. Infected cells were fixed (3.7% formaldehyde, 15 min), permeabilized (0.25% triton X-100, 5% FBS, 10 min), blocked (5% FBS, 1 h at RT), incubated overnight with primary antibodies in 5% FBS: Anti-NK1R (1:100, SC-15323, Santa Cruz), anti-SP, (1:200, ORB11399, Biorbyt), anti-orexin receptor 2, (1:200, AB10470, Abcam), anti-TAS2R43, (1:200, AB65513, Abcam), and anti-GALR2 antibodies (1:100, AB136264, Abcam). Appropriate fluorescently labeled secondary antibodies were used (Alexa Fluor® 488 goat anti-rabbit IgG, A-11034; Life Technologies, (1 hour at Room Temperature). After nuclear staining (DRAQ5, 1:1000, Abcam) slides were mounted (Fluoromount, Sigma-Aldrich), imaged by laser scanning confocal microscopy (MSM510 META confocal microscope, Carl Zeiss) and quantified by ImageJ software 1.46r (NIH).
# HTB-9 cells and differentiated SH-SY5Y cells were pre-treated with SR140333, or IL-1RA Anakinra (500 ng/ml) for 30 minutes before infection with CY17 (10^4 cfu/ml, four hours), or treatment with exogenous recombinant SP (R&D System) or IL-1β (Abnova) (20 ng/ml, four hours). After infection, cells were infected with CY17 and the NK1R, SP and IL-1β response was quantified by confocal imaging. IL-1β- and SP secretion was quantified by ELISA, in culture supernatants. In nerve- and bladder epithelial cells, SR140333 inhibited the SP/NK1R response to infection, consistent with an autocrine activation loop involving SP/NK1R as shown by confocal imaging (FIG. 10a). […] SP activated IL-1β expression and secretion in bladder epithelial cells but had no effect on IL-1β on nerve cells. (*=P<0.05, **=P<0.01, ***=P<0.001, Two-tailed t-test for confocal imaging data and Mann-Whitney U-test for ELISAs.
# Furthermore, to examine if the effects of NK1R inhibition can be generalized, we used two additional NK1R antagonists (CP99994 and L703.303). […]
smiles,measurement,setting,value
"CC(C)Oc1cccc(CC(=O)N2CCC[C@](CC[N+]34CCC(c5ccccc5)(CC3)CC4)(c3ccc(Cl)c(Cl)c3)C2)c1.[Cl-] [SR140333, 1-[2-[(3S)-3-(3,4-Dichlorophenyl)-1-[2-[3-(1-methylethoxy)phenyl]acetyl]-3-piperidinyl]ethyl]-4-phenyl-1-azoniabicyclo[2.2.2]octane chloride]","gross bladder pathology (edema, hyperemia and bladder enlargement)","[1]; 24 hours post infection, vs infected mice without therapy",reduction; also recorded: Protection
same,Histology score,[1]; after treatment with SR140333,reduced pathology
same,inflammatory cell infiltrate in tissues,[1]; treated Nlrp3^−/− mice vs infected mice without therapy,reduced
same,"bladder tissue pathology / tissue integrity (H&E, neutrophil and bacterial immunostained sections)",[1]; treated versus control mice,more intact; also recorded: Protection
same,SP/NK1R response to infection (confocal imaging),"[2]; pre-treated 30 minutes before CY17 (10^4 cfu/ml, four hours)",inhibited
same,"SP secretion (ELISA, culture supernatants)",[2]; pre-treated before CY17 infection,decrease
